From PubChem BioAssay AID206 (DTP/NCI, 2004)
Values joined by “and” are separate entries in the source; they are usually repeats but may differ in a detail not shown here. Equal values may be shown once. Inconclusive results are not listed. Starred links: 1 amine or outer side, 2 acyl side, 3 side chain; linkers in the order of their positions; H or OH if unused. Positions of bridges follow the written chain, without caps; N, C: chain ends. Non-standard residues stand in square brackets, D forms with d. Residues, ends and D or L forms follow the SMILES beside them. Chains are numbered I, II in the order given. Actinocin(9to1) = Cc1c2oc3c(C)ccc(C(=O)[*:1])c3nc-2c(C(=O)[*:2])c(N)c1=O; aThr = C[C@H](O)[C@H](N)C(=O)O; NMeV = CN[C@H](C(=O)O)C(C)C; Sar = CNCC(=O)O

Tested on: nude mice, HT29 intrarenal xenograft, tumor weight T/C
Assay: NCI In Vivo Anticancer Drug Screen. Data for tumor model HT29;CX-1 Human Adenocarcinoma (MER+) (intrarenal inoculation) in NU/NU Swiss (nude) mice
Settings: endpoint: mean tumor weight change, higher = larger tumour
How it was run: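 Compounds were given to mice carrying transplantable tumors; a vehicle-dosed group served as control. The endpoint measured in each group was compared as a T/C quotient.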

[1] = dose: 100.0 mg/kg/injection, schedule: Q04DX004 (sc), vehicle: Klucel (hydroxypropylcellulose) (HPC)
[2] = dose: 75.0 mg/kg/injection, schedule: Q04DX004 (sc), vehicle: saline
[3] = dose: 300.0 mg/kg/injection, schedule: Q04DX004 (sc), vehicle: saline
[4] = dose: 12.5 mg/kg/injection, schedule: Q01DX010 (sc), vehicle: saline
[5] = dose: 300.0 mg/kg/injection, schedule: Q04DX004 (sc), vehicle: saline with Tween-80
[6] = dose: 600.0 mg/kg/injection, schedule: Q04DX004 (sc), vehicle: saline with Tween-80
[7] = dose: 1200.0 mg/kg/injection, schedule: Q04DX004 (sc), vehicle: saline with Tween-80
[8] = dose: 150.0 mg/kg/injection, schedule: Q04DX004 (sc), vehicle: Klucel (hydroxypropylcellulose) (HPC)
[9] = dose: 300.0 mg/kg/injection, schedule: Q04DX004 (sc), vehicle: Klucel (hydroxypropylcellulose) (HPC)
[10] = dose: 600.0 mg/kg/injection, schedule: Q04DX004 (sc), vehicle: Klucel (hydroxypropylcellulose) (HPC)
[11] = dose: 100.0 mg/kg/injection, schedule: Q01DX010 (sc), vehicle: saline with Tween-80
[12] = dose: 200.0 mg/kg/injection, schedule: Q01DX010 (sc), vehicle: saline with Tween-80
[13] = dose: 75.0 mg/kg/injection, schedule: Q04DX004 (sc), vehicle: saline with Tween-80
[14] = dose: 150.0 mg/kg/injection, schedule: Q04DX004 (sc), vehicle: saline with Tween-80
[15] = dose: 2400.0 mg/kg/injection, schedule: Q04DX004 (sc), vehicle: saline with Tween-80

CC(=O)OCC1OC(OC2=C(CC=C(C)C)C(=O)c3ccccc3C2=O)C(OC(C)=O)C(OC(C)=O)C1OC(C)=O (stereo unspecified)
T/C [1]: 159 % of control | T/C (dose: 200.0 mg/kg/injection, schedule: Q04DX004 (sc), vehicle: Klucel (hydroxypropylcellulose) (HPC)): 105 % of control

N=C(N)Sc1cc(O)ccc1O
T/C [2]: 49 % of control | T/C (dose: 150.0 mg/kg/injection, schedule: Q04DX004 (sc), vehicle: saline): 54 % of control | T/C [3]: 54 % of control

CS(=O)(=O)OCCN(CCOS(C)(=O)=O)c1ccc(C=O)cc1
T/C [4]: 100 % of control | T/C (dose: 25.0 mg/kg/injection, schedule: Q01DX010 (sc), vehicle: saline): 90 % of control | T/C (dose: 50.0 mg/kg/injection, schedule: Q01DX010 (sc), vehicle: saline): 37 % of control

CN(C)N=Nc1ccccc1
T/C (dose: 25.0 mg/kg/injection, schedule: Q04DX004 (sc), vehicle: Klucel (hydroxypropylcellulose) (HPC)): 93 % of control | T/C (dose: 50.0 mg/kg/injection, schedule: Q04DX004 (sc), vehicle: Klucel (hydroxypropylcellulose) (HPC)): 62 % of control | T/C [1]: 84 % of control

Cc1c2oc3c(C)ccc(C(=O)N[C@@H]4C(=O)N[C@H](C(C)C)C(=O)N5CCC[C@H]5C(=O)N(C)CC(=O)N(C)[C@@H](C(C)C)C(=O)O[C@H]4C)c3nc-2c(C(=O)N[C@@H]2C(=O)N[C@H](C(C)C)C(=O)N3CCC[C@H]3C(=O)N(C)CC(=O)N(C)[C@@H](C(C)C)C(=O)O[C@H]2C)c(N)c1=O (I: [aThr][dV]P[Sar][NMeV] / II: [aThr][dV]P[Sar][NMeV]; ester I:1-I:C, II:1-II:C; linker I:N-II:N via Actinocin(9to1))
T/C (dose: 25.0 micrograms/kg/injection, schedule: Q01DX010 (sc), vehicle: saline): 31 % of control

O=Cc1c(O)c2ccccc2[nH]c1=O
T/C [5]: 79 % of control | T/C [6]: 98 % of control | T/C [7]: 65 % of control

O=NN(CCCl)C(=O)Oc1cc(Cl)c(Cl)cc1Cl
T/C [8]: 94 % of control | T/C [9]: 83 % of control | T/C [10]: 92 % of control

COc1cc2cc3cc4cc(OC)c(OC)cc4c(C)[n+]3cc2cc1OC (tested in a mixture with another compound)
T/C (dose: 200.0 mg/kg/injection, schedule: Q04DX004 (sc), vehicle: suspension in saline): 118 % of control | T/C (dose: 400.0 mg/kg/injection, schedule: Q04DX004 (sc), vehicle: suspension in saline): 80 % of control | T/C (dose: 800.0 mg/kg/injection, schedule: Q04DX004 (sc), vehicle: suspension in saline): 98 % of control

CC[N+](CC)(CC)CC
T/C (dose: 3.0 mg/kg/injection, schedule: Q01DX010 (sc), vehicle: saline with Tween-80): 68 % of control | T/C (dose: 6.0 mg/kg/injection, schedule: Q01DX010 (sc), vehicle: saline with Tween-80): 104 % of control

O=C1N(Cl)C(=O)C(c2ccc(Cl)cc2)(c2ccc(Cl)cc2)N1Cl
T/C [11]: 105 % of control | T/C [12]: 83 % of control

CSCS(=O)C[C@H](CO)NC(=O)/C=C/c1c(C)[nH]c(=O)[nH]c1=O (stereo partly specified)
T/C (dose: 0.75 mg/kg/injection, schedule: Q04DX004 (sc), vehicle: saline): 111 % of control | T/C (dose: 1.5 mg/kg/injection, schedule: Q04DX004 (sc), vehicle: saline): 81 % of control

O=C(O)CC(=O)O.[NH-]C1CCCCC1[NH-].[Pt+2] (stereo unspecified)
T/C (dose: 10.0 mg/kg/injection, schedule: Q01DX010 (sc), vehicle: dextrose): 264 % of control | T/C (dose: 15.0 mg/kg/injection, schedule: Q01DX010 (sc), vehicle: dextrose): 73 % of control | T/C (dose: 30.0 mg/kg/injection, schedule: Q01DX010 (sc), vehicle: dextrose): 32 % of control and 43 % of control | T/C (dose: 40.0 mg/kg/injection, schedule: Q01DX010 (sc), vehicle: dextrose): 21 % of control | T/C (dose: 60.0 mg/kg/injection, schedule: Q01DX010 (sc), vehicle: dextrose): 34 % of control and 44 % of control | T/C (dose: 120.0 mg/kg/injection, schedule: Q01DX010 (sc), vehicle: dextrose): 51 % of control

CCCCCCCCCCCCCCCCP(=O)(OCCOCCCCCC)OCCOCCCCCC
T/C (dose: 37.5 mg/kg/injection, schedule: Q04DX004 (sc), vehicle: saline): 206 % of control | T/C [2]: 93 % of control | T/C [3]: 178 % of control

CCN(CC)CCNc1ccc(C)c2sc3ccc(O)cc3c(=O)c12
T/C [13]: 53 % of control | T/C [14]: 74 % of control | T/C [6]: 103 % of control | T/C [7]: 41 % of control | T/C [15]: 58 % of control

CC(=O)ON(C(C)=O)c1ccc(C(N)=O)cc1
T/C [13]: 83 % of control | T/C [14]: 77 % of control | T/C [5]: 60 % of control | T/C [6]: 71 % of control and 78 % of control | T/C [7]: 103 % of control | T/C [15]: 61 % of control

O=C1C(NCC(O)CO)=C(N2CC2)C(=O)C(NCC(O)CO)=C1N1CC1 (stereo unspecified)
T/C (dose: 4.0 mg/kg/injection, schedule: Q04DX004 (sc), vehicle: saline): 86 % of control | T/C (dose: 8.0 mg/kg/injection, schedule: Q04DX004 (sc), vehicle: saline): 28 % of control | T/C (dose: 16.0 mg/kg/injection, schedule: Q04DX004 (sc), vehicle: saline): 25 % of control

Nc1nncs1
T/C (dose: 3.13 mg/kg/injection, schedule: Q01DX010 (sc), vehicle: saline): 97 % of control | T/C [4]: 84 % of control

OCC1(CO)COC2(CCCCC2)N1
T/C (dose: 600.0 mg/kg/injection, schedule: Q04DX004 (sc), vehicle: suspension in saline): 115 % of control | T/C (dose: 1200.0 mg/kg/injection, schedule: Q04DX004 (sc), vehicle: suspension in saline): 56 % of control | T/C (dose: 2400.0 mg/kg/injection, schedule: Q04DX004 (sc), vehicle: suspension in saline): 109 % of control

C[C@]12CC[C@H]3[C@@H](CCC4=C[C@@H](OC5OCC(OC6OC(CO)C(O)C(O)C6O)C(O)C5O)CC[C@@]43C=O)[C@@]1(O)CCC2C1=CC(=O)OC1 (stereo partly specified)
T/C (dose: 3.75 mg/kg/injection, schedule: Q04DX004 (sc), vehicle: Klucel (hydroxypropylcellulose) (HPC)): 67 % of control | T/C (dose: 7.5 mg/kg/injection, schedule: Q04DX004 (sc), vehicle: Klucel (hydroxypropylcellulose) (HPC)): 97 % of control | T/C (dose: 15.0 mg/kg/injection, schedule: Q04DX004 (sc), vehicle: Klucel (hydroxypropylcellulose) (HPC)): 93 % of control | T/C (dose: 30.0 mg/kg/injection, schedule: Q04DX004 (sc), vehicle: Klucel (hydroxypropylcellulose) (HPC)): 110 % of control

Cc1ccc(S(=O)(=O)OCOS(=O)(=O)c2ccc(C)cc2)cc1
T/C [8]: 118 % of control | T/C [9]: 100 % of control | T/C [10]: 53 % of control | T/C (dose: 1200.0 mg/kg/injection, schedule: Q04DX004 (sc), vehicle: Klucel (hydroxypropylcellulose) (HPC)): 68 % of control

Cc1cc(N(CC(C)Br)CC(C)Br)ccc1N=Nc1ccccc1C(=O)O (stereo unspecified)
T/C (dose: 3.13 mg/kg/injection, schedule: Q01DX010 (sc), vehicle: saline with Tween-80): 69 % of control | T/C (dose: 6.25 mg/kg/injection, schedule: Q01DX010 (sc), vehicle: saline with Tween-80): 18 % of control | T/C (dose: 12.5 mg/kg/injection, schedule: Q01DX010 (sc), vehicle: saline with Tween-80): 14 % of control

C/C(=C\c1ccccc1)[N+](=O)[O-]
T/C (dose: 50.0 mg/kg/injection, schedule: Q01DX010 (sc), vehicle: Klucel (hydroxypropylcellulose) (HPC)): 91 % of control | T/C (dose: 100.0 mg/kg/injection, schedule: Q01DX010 (sc), vehicle: Klucel (hydroxypropylcellulose) (HPC)): 110 % of control

COc1cccc2c1C(=O)c1c(O)c3c(c(O)c1C2=O)C[C@@](O)(C(C)=O)C[C@@H]3OC1CC(N(C)C)C(O)C(C)O1 (stereo partly specified)
T/C (dose: 2.5 mg/kg/injection, schedule: Q04DX004 (sc), vehicle: water): 69 % of control | T/C (dose: 4.0 mg/kg/injection, schedule: Q01DX010 (sc), vehicle: saline): 54 % of control | T/C (dose: 5.0 mg/kg/injection, schedule: Q04DX004 (sc), vehicle: water): 45 % of control | T/C (dose: 10.0 mg/kg/injection, schedule: Q04DX004 (sc), vehicle: water): 97 % of control

O=C1C=C2C(=CCOC2O)O1 (stereo unspecified)
T/C (dose: 2.0 mg/kg/injection, schedule: Q04DX004 (sc), vehicle: Klucel (hydroxypropylcellulose) (HPC)): 53 % of control | T/C (dose: 4.0 mg/kg/injection, schedule: Q04DX004 (sc), vehicle: Klucel (hydroxypropylcellulose) (HPC)): 87 % of control

C[C@@H](CN1CC(=O)NC(=O)C1)N1CC(=O)NC(=O)C1
T/C [11]: 232 % of control | T/C [12]: 46 % of control
